Source: PubChem BioAssay AID1919000 (Molecular Pharmacology Branch, DTP, NCI, 2023)

Tested on: 653999-131-R-J2-PDC complex spheroids, growth % test/control
Assay: Anticancer human tumor 653999-131-R-J2-PDC patient-derived lung adenocarcinoma cell line growth inhibition [AhR]
Details: for IC50: curve of first compound; for viability, T/C: stronger effect = lower value
Excerpt: Multicellular complex tumor spheroid response to aryl hydrocarbon receptor antagonists in combination with a variety of drugs and investigational agents in selected tumor cell lines
The current study was undertaken to assess response to aryl hydrocarbon receptor antagonists in combination with standard-of-care drugs and investigational agents in solid tumor complex spheroid models. Complex spheroids include a stromal component modeled by human endothelial cells (HUVEC) and fibroblasts modeled by human mesenchymal stem cells (MSCs). The concentration ranges selected for each drug and investigational agent were based upon clinically achievable concentrations if the clinical Cmax of the agent was known.
Compounds. The drugs and investigational agents: BAY 2416964 (NSC825713), GNF351 (NSC835774), CH-223191 (NSC835775), CPI-455 (NSC825282), aza-TdCyd (NSC777586), decitabine (NSC127716), belinostat (NSC758774), entinostat (NSC756642), pevonedistat (NSC761192), tazemetostat (NSC777109), talazoparib (NSC765396), olaparib (NSC753686), selinexor (NSC780203), nedisertib (M3814, NSC802822), bortezomib (NSC756655), venetoclax (NSC766270), doxorubicin (NSC123127), elimusertib (BAY189344, NSC800525), ceralasertib (AZD6738, NSC777638), TAK-243 (NSC785004), alisertib (NSC759677), etoposide (NSC141540), topotecan (NSC609699), eribulin (NSC707389), gemcitabine (NSC613327), carboplatin (NSC241240), cisplatin (NSC119875), and SN-38 (NSC673596) were obtained from the National Cancer Institute (NCI) Developmental Therapeutics Program Chemical Repository (32). The FDA-approved anticancer drug set is available from the Developmental Therapeutics Program at https://dtp.cancer.gov/organization/dscb/obtaining/available plates.htm. […] The stock solutions were prepared in dimethyl sulfoxide (DMSO, Sigma-Aldrich, St. Louis, MO, cat. D2650), except for the platinum compounds which were prepared in saline (Quality Biological, Gaithersburg, MD, cat. 114-055-101), at 800-fold the tested concentration and stored at -70 degrees C prior to their use. All drugs and investigational agents were tested over a range starting from a high concentration at or near the clinical Cmax and decreasing in half-log increments. If the clinical Cmax for an agent had not been determined, the highest concentration tested was 10 microM (Table 1).
Cell Culture. All cells were maintained in an incubator at 37 degrees C and 5% CO2 with 95% humidity. The PDC lines were cultured according to standard operating procedures established by the NCI PDMR (https://pdmr.cancer.gov). Briefly, all PDCs were thawed and cultured in Matrigel-coated flasks prepared with a working solution of 1X Ham's F-12 nutrient mix, without supplementation (Invitrogen, Waltham, MA, cat. 11765054), 100 U/mL penicillin-streptomycin (Invitrogen, cat. 15140122), and 2.5% Matrigel (Corning Inc., Corning, NY, cat. 354248) for the first three passages. All PDCs were cultured in complete DMEM/F-12 media containing advanced DMEM/F-12 (Invitrogen, cat. 12634028), 4.9% defined fetal bovine serum, heat inactivated (HyClone Laboratories Inc., Logan, UT, cat. SH30070.03HI), 389 ng/mL hydrocortisone (Sigma-Aldrich, cat. H4001), 9.7 ng/mL human EGF recombinant protein (Invitrogen, cat. PHG0313), 23.4 microg/mL adenine (Sigma-Aldrich, cat. A2786), 97.3 U/mL penicillin-streptomycin (Invitrogen, cat. 15140122), 1.9 mM L-glutamine (Invitrogen, cat. 25030081), and 9.7 microM Y-27632 dihydrochloride (Tocris Bioscience, Bristol, United Kingdom, cat. 1254). The PDCs were cultured in complete DMEM/F12 media without 10 microM Y-27632 dihydrochloride for at least two passages prior to the screen. The established cell lines NCI-H1341 and […] were cultured in DMEM/F-12, HEPES (Invitrogen, cat. 11330032), 5% defined fetal bovine serum (HyClone Laboratories Inc., cat. SH30070.03), ITS premix universal culture supplement [insulin (5 microg/mL), transferrin (5 microg/mL), and selenious acid (5 ng/mL)] […]

[1] = second compound 0.1 µM, first compound 0.0316 µM
[2] = second compound 0.1 µM, first compound 0.1 µM
[3] = second compound 0.1 µM, first compound 0.316 µM
[4] = second compound 0.1 µM, first compound 1 µM
[5] = second compound 0.316 µM, first compound 0.0316 µM
[6] = second compound 0.316 µM, first compound 0.1 µM
[7] = second compound 0.316 µM, first compound 0.316 µM
[8] = second compound 0.316 µM, first compound 1 µM
[9] = second compound 1 µM, first compound 0.0316 µM
[10] = second compound 1 µM, first compound 0.1 µM
[11] = second compound 1 µM, first compound 0.316 µM
[12] = second compound 1 µM, first compound 1 µM
[13] = second compound 3.16 µM, first compound 0.0316 µM
[14] = second compound 3.16 µM, first compound 0.1 µM
[15] = second compound 3.16 µM, first compound 0.316 µM
[16] = second compound 3.16 µM, first compound 1 µM
[17] = second compound 10 µM, first compound 0.0316 µM
[18] = second compound 10 µM, first compound 0.1 µM
[19] = second compound 10 µM, first compound 0.316 µM
[20] = second compound 10 µM, first compound 1 µM
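Further: spheroids exposed to agents for seven days.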

Structure (SMILES)	IC50 (second compound 0.1 µM) [nM]	IC50 (second compound 0.316 µM) [nM]	IC50 (second compound 1 µM) [nM]	IC50 (second compound 3.16 µM) [nM]	IC50 (second compound 10 µM) [nM]	viability, T/C [1] [%]	viability, T/C [2] [%]	viability, T/C [3] [%]	viability, T/C [4] [%]	viability, T/C [5] [%]	viability, T/C [6] [%]	viability, T/C [7] [%]	viability, T/C [8] [%]	viability, T/C [9] [%]	viability, T/C [10] [%]	viability, T/C [11] [%]	viability, T/C [12] [%]	viability, T/C [13] [%]	viability, T/C [14] [%]	viability, T/C [15] [%]	further results
CC1COCCN1c1cc(-c2ccnn2C)c2ccnc(-c3ccn[nH]3)c2n1 (stereo not given) + Cc1ccccc1N=Nc1ccc(NC(=O)c2ccnn2C)c(C)c1	168	157	193	138	233	82	59.7	38.7	34.5	78.4	60.3	36.6	31.8	76.9	65.1	37.9	36.3	84.5	54.9	39.8	viability, T/C (second compound 0.1 µM, first compound 0.00316 µM): 98.7%; viability, T/C (second compound 0.1 µM, first compound 0.01 µM): 101%; viability, T/C (second compound 0.316 µM, first compound 0.00316 µM): 103%; viability, T/C (second compound 0.316 µM, first compound 0.01 µM): 103%; viability, T/C (second compound 1 µM, first compound 0.00316 µM): 102%; viability, T/C (second compound 1 µM, first compound 0.01 µM): 100%; viability, T/C (second compound 3.16 µM, first compound 0.00316 µM): 103%; viability, T/C (second compound 3.16 µM, first compound 0.01 µM): 107%; viability, T/C [16]: 35.1%; viability, T/C (second compound 10 µM, first compound 0.00316 µM): 89.7%; viability, T/C (second compound 10 µM, first compound 0.01 µM): 89.3%; viability, T/C [17]: 76.3%; viability, T/C [18]: 57.6%; viability, T/C [19]: 49.8%; viability, T/C [20]: 39.1%
NS(=O)(=O)OCC1CC(n2ccc3c(NC4CCc5ccccc54)ncnc32)CC1O (stereo not given) + CC(CO)NC(=O)c1cc(-c2ccc(Cl)cc2)nn(-c2cnn(C)c2)c1=O	> 10000	> 10000	> 10000	> 10000	> 10000	108	99.8	109	98.9	108	98.7	101	80.4	101	111	114	53.8	101	102	99.9	viability, T/C (second compound 0.1 µM, first compound 3.16 µM): 63.4%; viability, T/C (second compound 0.1 µM, first compound 10 µM): 51%; viability, T/C (second compound 0.316 µM, first compound 3.16 µM): 53.1%; viability, T/C (second compound 0.316 µM, first compound 10 µM): 54.5%; viability, T/C (second compound 1 µM, first compound 3.16 µM): 53.4%; viability, T/C (second compound 1 µM, first compound 10 µM): 52.3%; viability, T/C [16]: 54.5%; viability, T/C (second compound 3.16 µM, first compound 3.16 µM): 52%; viability, T/C (second compound 3.16 µM, first compound 10 µM): 58.4%; viability, T/C [17]: 97.9%; viability, T/C [18]: 96.9%; viability, T/C [19]: 93.5%; viability, T/C [20]: 54.1%; viability, T/C (second compound 10 µM, first compound 3.16 µM): 51%; viability, T/C (second compound 10 µM, first compound 10 µM): 56.9%
